According to EP4635500A1, “THERAPEUTIC AGENT FOR BACTERIAL INFECTION” (Sumitomo Pharma Co., Ltd., priority 2022, dated 2024):
Read-outs that look alike come from different tables or passages of the source.

Legend:
P. aeruginosa = assay: MIC, broth microdilution, CDC/FDA Antibiotic Resistance Isolate Bank (Example 7, Tables 10, 15); type: cell-based; settings: for MIC: Pseudomonas aeruginosa, read-out: MIC
53 CRE and CPE strains = assay: MICrange, MIC50, MIC80, MIC90 for 53 bacterial isolates (Example 5, Table 5); type: cell-based; settings: 53 bacterial isolates
[1] = 26 metallo-carbapenemase-producing P. aeruginosa strains, β-lactamase inhibitor µg/mL in parentheses
[2] = 96 strains of P. aeruginosa, β-lactamase inhibitor µg/mL in parentheses

C[C@H]1COc2c(N3CCN(C)CC3)c(F)cc3c(=O)c(C(=O)O)cn1c23 [Levofloxacin, levofloxacin]
> 64 µg/mL: MIC (P. aeruginosa; P. aeruginosa KUB No. 5597, AR Bank # 100) | MIC (P. aeruginosa; P. aeruginosa KUB No. 5602, AR Bank # 105) | MIC (P. aeruginosa; P. aeruginosa KUB No. 5673, AR Bank # 240) | MIC (P. aeruginosa; P. aeruginosa KUB No. 5678, AR Bank # 245) | MIC (P. aeruginosa; P. aeruginosa KUB No. 5799, AR Bank # 456) | MIC (P. aeruginosa; P. aeruginosa KUB No. 5806, AR Bank # 864)
8 µg/mL: MIC (P. aeruginosa; P. aeruginosa KUB No. 5665, AR Bank # 232) | MIC (P. aeruginosa; P. aeruginosa KUB No. 5667, AR Bank # 234) | MIC (P. aeruginosa; P. aeruginosa KUB No. 5684, AR Bank # 251) | MIC (P. aeruginosa; P. aeruginosa KUB No. 5701, AR Bank # 268) | MIC (P. aeruginosa; P. aeruginosa KUB No. 5705, AR Bank # 272) | MIC (P. aeruginosa; P. aeruginosa KUB No. 5747, AR Bank # 351) | MIC (P. aeruginosa; P. aeruginosa KUB No. 5750, AR Bank # 354) | MIC (P. aeruginosa; P. aeruginosa KUB No. 5754, AR Bank # 358) | MIC (P. aeruginosa; P. aeruginosa KUB No. 5755, AR Bank # 359) | MIC (P. aeruginosa; P. aeruginosa KUB No. 5802, AR Bank # 459)
0.004 µg/mL: MIC (P. aeruginosa; P. aeruginosa KUB No. 5817, AR Bank # 512)
32 µg(mL): MIC against 26 metallo-carbapenemase-producing strains MIC50 (P. aeruginosa; [1]) | MIC against 96 strains of P. aeruginosa MIC50 (P. aeruginosa; [2])
4 µg/mL: MIC (P. aeruginosa; P. aeruginosa KUB No. 5694, AR Bank # 261) | MIC (P. aeruginosa; P. aeruginosa KUB No. 5798, AR Bank # 455) | MIC (P. aeruginosa; P. aeruginosa KUB No. 5804, AR Bank # 862)
> 0.064 µg/mL: MIC (P. aeruginosa; P. aeruginosa KUB No. 5818, AR Bank # 513) | MIC (P. aeruginosa; P. aeruginosa KUB No. 5820, AR Bank # 515)
16 µg/mL: MIC (P. aeruginosa; P. aeruginosa KUB No. 5669, AR Bank # 236) | MIC (P. aeruginosa; P. aeruginosa KUB No. 5675, AR Bank # 242) | MIC (P. aeruginosa; P. aeruginosa KUB No. 5676, AR Bank # 243) | MIC (P. aeruginosa; P. aeruginosa KUB No. 5681, AR Bank # 248) | MIC (P. aeruginosa; P. aeruginosa KUB No. 5685, AR Bank # 252) | MIC (P. aeruginosa; P. aeruginosa KUB No. 5687, AR Bank # 254) | MIC50 (53 CRE and CPE strains; read-out: MIC50)
0.016 µg/mL: MIC (P. aeruginosa; P. aeruginosa KUB No. 5834, AR Bank # 529)
0.5 µg/mL: MIC (P. aeruginosa; P. aeruginosa KUB No. 579, AR Bank # 447) | MIC (P. aeruginosa; P. aeruginosa KUB No. 5670, AR Bank # 237) | MIC (P. aeruginosa; P. aeruginosa KUB No. 5671, AR Bank # 238) | MIC (P. aeruginosa; P. aeruginosa KUB No. 5689, AR Bank # 256) | MIC (P. aeruginosa; P. aeruginosa KUB No. 5691, AR Bank # 258) | MIC (P. aeruginosa; P. aeruginosa KUB No. 5692, AR Bank # 259) | MIC (P. aeruginosa; P. aeruginosa KUB No. 5752, AR Bank # 356) | MIC (P. aeruginosa; P. aeruginosa KUB No. 5787, AR Bank # 441)
>64 µg(mL): MIC against 26 metallo-carbapenemase-producing strains MIC90 (P. aeruginosa; [1])
64 µg(mL): MIC against 96 strains of P. aeruginosa MIC90 (P. aeruginosa; [2])
32 µg/mL: MIC (P. aeruginosa; P. aeruginosa KUB No. 5561, AR Bank # 64) | MIC (P. aeruginosa; P. aeruginosa KUB No. 5587, AR Bank # 90) | MIC (P. aeruginosa; P. aeruginosa KUB No. 5592, AR Bank # 95) | MIC (P. aeruginosa; P. aeruginosa KUB No. 5607, AR Bank # 110) | MIC (P. aeruginosa; P. aeruginosa KUB No. 5608, AR Bank # 111) | MIC (P. aeruginosa; P. aeruginosa KUB No. 5663, AR Bank # 230) | MIC (P. aeruginosa; P. aeruginosa KUB No. 5674, AR Bank # 241) | MIC (P. aeruginosa; P. aeruginosa KUB No. 5679, AR Bank # 246) | MIC (P. aeruginosa; P. aeruginosa KUB No. 5688, AR Bank # 255) | MIC (P. aeruginosa; P. aeruginosa KUB No. 5693, AR Bank # 260) | MIC (P. aeruginosa; P. aeruginosa KUB No. 5697, AR Bank # 264) | MIC (P. aeruginosa; P. aeruginosa KUB No. 5699, AR Bank # 266) | MIC (P. aeruginosa; P. aeruginosa KUB No. 5700, AR Bank # 267) | MIC (P. aeruginosa; P. aeruginosa KUB No. 5702, AR Bank # 269) | MIC (P. aeruginosa; P. aeruginosa KUB No. 5703, AR Bank # 270) | MIC (P. aeruginosa; P. aeruginosa KUB No. 5704, AR Bank # 271) | MIC (P. aeruginosa; P. aeruginosa KUB No. 5748, AR Bank # 352) | MIC (P. aeruginosa; P. aeruginosa KUB No. 5749, AR Bank # 353) | MIC (P. aeruginosa; P. aeruginosa KUB No. 5751, AR Bank # 355) | MIC (P. aeruginosa; P. aeruginosa KUB No. 5753, AR Bank # 357) | MIC (P. aeruginosa; P. aeruginosa KUB No. 5785, AR Bank # 439) | MIC (P. aeruginosa; P. aeruginosa KUB No. 5786, AR Bank # 440) | MIC (P. aeruginosa; P. aeruginosa KUB No. 5789, AR Bank # 444) | MIC (P. aeruginosa; P. aeruginosa KUB No. 5790, AR Bank # 445) | MIC (P. aeruginosa; P. aeruginosa KUB No. 5793, AR Bank # 449)
0.008 µg/mL: MIC (P. aeruginosa; P. aeruginosa KUB No. 5813, AR Bank # 508) | MIC (P. aeruginosa; P. aeruginosa KUB No. 5815, AR Bank # 510)
2 µg/mL: MIC (P. aeruginosa; P. aeruginosa KUB No. 5666, AR Bank # 23) | MIC (P. aeruginosa; P. aeruginosa KUB No. 5695, AR Bank # 262) | MIC (P. aeruginosa; P. aeruginosa KUB No. 5696, AR Bank # 263) | MIC (P. aeruginosa; P. aeruginosa KUB No. 5801, AR Bank # 458)
1 µg/mL: MIC (P. aeruginosa; P. aeruginosa KUB No. 5680, AR Bank # 247) | MIC (P. aeruginosa; P. aeruginosa KUB No. 5686, AR Bank # 253) | MIC (P. aeruginosa; P. aeruginosa KUB No. 5756, AR Bank # 360)
0.032 µg/mL: MIC (P. aeruginosa; P. aeruginosa KUB No. 5814, AR Bank # 509) | MIC (P. aeruginosa; P. aeruginosa KUB No. 5831, AR Bank # 526) | MIC (P. aeruginosa; P. aeruginosa KUB No. 5832, AR Bank # 527) | MIC (P. aeruginosa; P. aeruginosa KUB No. 5833, AR Bank # 528)
64 µg/mL: MIC (P. aeruginosa; P. aeruginosa KUB No. 5083, AR Bank # 250) | MIC (P. aeruginosa; P. aeruginosa KUB No. 5551, AR Bank # 54) | MIC (P. aeruginosa; P. aeruginosa KUB No. 5589, AR Bank # 92) | MIC (P. aeruginosa; P. aeruginosa KUB No. 5591, AR Bank # 94) | MIC (P. aeruginosa; P. aeruginosa KUB No. 5600, AR Bank # 103) | MIC (P. aeruginosa; P. aeruginosa KUB No. 5605, AR Bank # 108) | MIC (P. aeruginosa; P. aeruginosa KUB No. 5662, AR Bank # 229) | MIC (P. aeruginosa; P. aeruginosa KUB No. 5664, AR Bank # 231) | MIC (P. aeruginosa; P. aeruginosa KUB No. 5668, AR Bank # 235) | MIC (P. aeruginosa; P. aeruginosa KUB No. 5672, AR Bank # 239) | MIC (P. aeruginosa; P. aeruginosa KUB No. 5677, AR Bank # 244) | MIC (P. aeruginosa; P. aeruginosa KUB No. 5682, AR Bank # 249) | MIC (P. aeruginosa; P. aeruginosa KUB No. 5690, AR Bank # 257) | MIC (P. aeruginosa; P. aeruginosa KUB No. 5698, AR Bank # 265) | MIC (P. aeruginosa; P. aeruginosa KUB No. 5788, AR Bank # 443) | MIC (P. aeruginosa; P. aeruginosa KUB No. 5800, AR Bank # 457) | MIC (P. aeruginosa; P. aeruginosa KUB No. 5805, AR Bank # 863) | MIC80 (53 CRE and CPE strains; read-out: MIC80) | MIC90 (53 CRE and CPE strains; read-out: MIC90)
0.001 µg/mL: MIC (P. aeruginosa; P. aeruginosa KUB No. 5816, AR Bank # 511) | MIC (P. aeruginosa; P. aeruginosa KUB No. 5819, AR Bank # 514) | MIC (P. aeruginosa; P. aeruginosa KUB No. 5821, AR Bank # 516)
0.064 µg/mL: MIC (P. aeruginosa; P. aeruginosa KUB No. 5823, AR Bank # 518)
